# In patent US20060069132A1, “Azolecarboxamide herbicides” (priority 2004, published 2006):
# Tests used:
# wheat = assay: Test B postemergence herbicide test; assay type: in vivo, Triticum aestivum; parameters: key to Wheat plant response rating: 0 = no effect, 100 = complete control; settings: scale 0 (no effect) to 100 (complete control)
# Outline: (§1)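 Read-out: visual comparison with controls, scored 0 to 100, where 100 means complete control and 0 no effect. Formulated chemicals were applied postemergence to plants 2–18 cm tall (1- to 4-leaf), or to flooded-paddy plants at the 2-leaf stage, then held 13 to 15 days under glass.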
# morningglory [1] = assay: Test B pre-/postemergence herbicide test; assay type: in vivo, Ipomoea coccinea
# Outline: (§2)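 Evaluation is visual, comparing treated with control plants on a scale where 0 means no effect and 100 means full control. Treatments were preemergence, or postemergence on seedlings 2–18 cm tall, and held 13–15 days in the greenhouse.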
# velvetleaf [2] = assay: Test B pre-/postemergence herbicide test; assay type: in vivo, Abutilon theophrasti
# Outline: (§3)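 Pre: seeds sown, then sprayed. Post: 1–4-leaf plants (2–18 cm) sprayed at the same time. Paddy: flooded, treated at 2-leaf stage. Formulation: non-phytotoxic solvent with surfactant. Greenhouse 13–15 days; visual 0–100 score relative to controls.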
# lambsquarters = assay: Test B pre-/postemergence herbicide test; assay type: in vivo, Chenopodium album
# Outline: as §3
# Surinam grass = assay: Test B pre-/postemergence herbicide test; assay type: in vivo, Urochloa decumbens
# Outline: as §3
# morningglory [3] = assay: Test A pre-/postemergence herbicide test; assay type: in vivo, Ipomoea spp.
# Outline: (§4)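 Pre: seeded sandy loam, directed soil spray, compound in non-phytotoxic solvent + surfactant. Post: 1–2-leaf plants (2–10 cm), sprayed to runoff. Greenhouse ~10 d; visual injury vs untreated, 0–100 scale.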
# corn = assay: Test B pre-/postemergence herbicide test; assay type: in vivo, Zea mays
# Outline: as §3
# pigweed = assay: Test B pre-/postemergence herbicide test; assay type: in vivo, Amaranthus retroflexus
# Outline: as §3
# rice = assay: Test B flooded paddy test; assay type: in vivo, Oryza sativa; settings: 1000 g ai/ha, visual rating, scale 0 to 100 (0 no effect, 100 complete control), 13 to 15 days
# Outline: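 Plants grow to 1- to 4-leaf stage (2–18 cm) for postemergence spraying, or to 2-leaf stage for the paddy test. Formulated compound is applied. Greenhouse holding lasts 13–15 days. Response is scored visually relative to controls, 0 no effect to 100 complete control; a dash means no result.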
# wild oat = assay: Test B postemergence herbicide test; assay type: in vivo, Avena fatua; settings: scale 0 (no effect) to 100 (complete control)
# Outline: as §1
# [4] = tested on: small flower umbrella sedge; assay: Test B flooded paddy test; assay type: in vivo, Cyperus difformis; settings: 1000 g ai/ha, visual rating, scale 0 to 100 (0 no effect, 100 complete control), 13 to 15 days
# Outline: (§5)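 Each value is a visual 0–100 response rating taken against controls 13 to 15 days after treatment in the greenhouse. Plants received formulated chemical postemergence at the 1- to 4-leaf stage or, in flooded paddy, at the 2-leaf stage.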
# redroot pigweed = assay: Test A pre-/postemergence herbicide test; assay type: in vivo, Amaranthus retroflexus
# Outline: as §4
# giant foxtail [5] = assay: Test B pre-/postemergence herbicide test; assay type: in vivo, Setaria faberi
# Outline: as §3
# blackgrass = assay: Test B postemergence herbicide test; assay type: in vivo, Alopecurus myosuroides; settings: scale 0 (no effect) to 100 (complete control)
# Outline: as §5
# velvetleaf [6] = assay: Test A pre-/postemergence herbicide test; assay type: in vivo, Abutilon theophrasti
# Outline: as §4
# large crabgrass [7] = assay: Test A pre-/postemergence herbicide test; assay type: in vivo, Digitaria sanguinalis
# Outline: as §4
# cocklebur = assay: Test B pre-/postemergence herbicide test; assay type: in vivo, Xanthium strumarium
# Outline: as §2
# barnyardgrass [8] = assay: Test A pre-/postemergence herbicide test; assay type: in vivo, Echinochloa crus-galli
# Outline: as §4
# large crabgrass [9] = assay: Test B pre-/postemergence herbicide test; assay type: in vivo, Digitaria sanguinalis
# Outline: as §3
# giant foxtail [10] = assay: Test A pre-/postemergence herbicide test; assay type: in vivo, Setaria faberi
# Outline: as §4
# barnyardgrass [11] = assay: Test B pre-/postemergence herbicide test; assay type: in vivo, Echinochloa crus-galli
# Outline: as §2
# barnyardgrass [12] = assay: Test B flooded paddy test; assay type: in vivo, Echinochloa crus-galli; settings: 1000 g ai/ha, visual rating, scale 0 to 100 (0 no effect, 100 complete control), 13 to 15 days
# Outline: as §5
# ducksalad = assay: Test B flooded paddy test; assay type: in vivo, Heteranthera limosa; settings: 1000 g ai/ha, visual rating, scale 0 to 100 (0 no effect, 100 complete control), 13 to 15 days
# Outline: as §5
# [13] = Postemergence, 500 g ai/ha, visual rating after 13 to 15 days
# [14] = postemergence, 125 g ai/ha, visual rating
# [15] = 500 g ai/ha, visual rating 0-100, 0 no effect, 100 complete control, preemergence
# [16] = Postemergence, 500 g ai/ha, visual rating after 13 to 15 days, scale 0 (no effect) to 100 (complete control)
# [17] = postemergence, 125 g ai/ha, visual rating, scale 0 (no effect) to 100 (complete control)
# [18] = preemergence, 125 g ai/ha, 0 to 100 scale, 0 is no effect, 100 is complete control
# [19] = Postemergence, 500 g ai/ha, 0 to 100 scale, 0 no effect, 100 complete control
# [20] = Postemergence, 2000 g ai/ha, 0 to 100 scale, 0 no effect, 100 complete control
# [21] = Preemergence, 500 g ai/ha, visual rating, 0 to 100 scale (0 no effect, 100 complete control)
# [22] = Preemergence, 2000 g ai/ha, visual rating, 0 to 100 scale (0 no effect, 100 complete control)
smiles,measurement,setting,value
CC(=NO)c1cccc(NC(=O)c2cc(C(C)(C)C)nn2C)c1 [Compound 107],"Plant response rating, Wheat",wheat; [13],0
same,Wheat plant response rating,wheat; [14],0
same,"Plant response rating, Morningglory",morningglory [1]; [15],10
same,"Plant response rating, Morningglory",morningglory [1]; [16],0
same,Morningglory plant response rating,morningglory [1]; [17],0
same,"Plant response rating, Morningglory",morningglory [1]; [18],0
same,"Plant response rating, Velvetleaf",velvetleaf [2]; [15],0
same,"Plant response rating, Velvetleaf",velvetleaf [2]; [16],0
same,Velvetleaf plant response rating,velvetleaf [2]; [17],0
same,"Plant response rating, Velvetleaf",velvetleaf [2]; [18],0
same,"Plant response rating, Lambsquarters",lambsquarters; [15],30
same,"Plant response rating, Lambsquarters",lambsquarters; [16],20
same,Lambsquarters plant response rating,lambsquarters; [17],10
same,"Plant response rating, Lambsquarters",lambsquarters; [18],0
same,"Plant response rating, Surinam Grass",Surinam grass; [15],10
same,"Plant response rating, Surinam Grass",Surinam grass; [16],10
same,Surinam Grass plant response rating,Surinam grass; [17],10
same,"Plant response rating, Surinam Grass",Surinam grass; [18],0
same,Morningglory plant response rating,morningglory [3]; [19],30
same,"Plant response rating, Morningglory",morningglory [3]; [20],40
same,Morningglory plant response rating,morningglory [3]; [21],95
same,Morningglory plant response rating,morningglory [3]; [22],100
same,"Plant response rating, Corn",corn; [15],0
same,"Plant response rating, Corn",corn; [16],0
same,Corn plant response rating,corn; [17],0
same,"Plant response rating, Corn",corn; [18],0
same,"Plant response rating, Pigweed",pigweed; [15],0
same,"Plant response rating, Pigweed",pigweed; [16],10
same,Pigweed plant response rating,pigweed; [17],0
same,"Plant response rating, Pigweed",pigweed; [18],0
same,Rice plant response rating,rice,0
same,"Plant response rating, Oat, Wild",wild oat; [13],0
same,"Oat, Wild plant response rating",wild oat; [14],0
same,"Sedge, Umbrella plant response rating",[4],60
same,Pigweed plant response rating,redroot pigweed; [19],95
same,"Plant response rating, Pigweed",redroot pigweed; [20],100
same,Pigweed plant response rating,redroot pigweed; [21],35
same,Pigweed plant response rating,redroot pigweed; [22],95
same,"Plant response rating, Foxtail, Giant",giant foxtail [5]; [15],0
same,"Plant response rating, Foxtail, Giant",giant foxtail [5]; [16],0
same,"Foxtail, Giant plant response rating",giant foxtail [5]; [17],0
same,"Plant response rating, Foxtail, Giant",giant foxtail [5]; [18],0
same,"Plant response rating, Blackgrass",blackgrass; [13],0
same,Blackgrass plant response rating,blackgrass; [14],0
same,Velvetleaf plant response rating,velvetleaf [6]; [19],0
same,"Plant response rating, Velvetleaf",velvetleaf [6]; [20],0
same,Velvetleaf plant response rating,velvetleaf [6]; [21],0
same,Velvetleaf plant response rating,velvetleaf [6]; [22],0
same,"Crabgrass, Large plant response rating",large crabgrass [7]; [19],25
same,"Plant response rating, Crabgrass, Large",large crabgrass [7]; [20],40
same,"Crabgrass, Large plant response rating",large crabgrass [7]; [21],65
same,"Crabgrass, Large plant response rating",large crabgrass [7]; [22],90
same,"Plant response rating, Cocklebur",cocklebur; [15],0
same,"Plant response rating, Cocklebur",cocklebur; [16],0
same,Cocklebur plant response rating,cocklebur; [17],0
same,"Plant response rating, Cocklebur",cocklebur; [18],0
same,Barnyardgrass plant response rating,barnyardgrass [8]; [19],20
same,"Plant response rating, Barnyardgrass",barnyardgrass [8]; [20],55
same,Barnyardgrass plant response rating,barnyardgrass [8]; [21],0
same,Barnyardgrass plant response rating,barnyardgrass [8]; [22],35
same,"Plant response rating, Crabgrass, Large",large crabgrass [9]; [15],10
same,"Plant response rating, Crabgrass, Large",large crabgrass [9]; [16],0
same,"Crabgrass, Large plant response rating",large crabgrass [9]; [17],0
same,"Plant response rating, Crabgrass, Large",large crabgrass [9]; [18],0
same,"Foxtail, Giant plant response rating",giant foxtail [10]; [19],20
same,"Plant response rating, Foxtail, Giant",giant foxtail [10]; [20],35
same,"Foxtail, Giant plant response rating",giant foxtail [10]; [21],10
same,"Foxtail, Giant plant response rating",giant foxtail [10]; [22],80
same,"Plant response rating, Barnyardgrass",barnyardgrass [11]; [15],0
same,"Plant response rating, Barnyardgrass",barnyardgrass [11]; [16],0
same,Barnyardgrass plant response rating,barnyardgrass [11]; [17],0
same,"Plant response rating, Barnyardgrass",barnyardgrass [11]; [18],0
same,Barnyardgrass plant response rating,barnyardgrass [12],0
same,Ducksalad plant response rating,ducksalad,60
